Measurements published in the NIST ThermoML archive (doi:10.1016/j.fluid.2009.11.030).

Experiment: excess molar enthalpy (molar enthalpy of mixing); xn = mol fraction of the nth substance listed
Conditions: 101.3 kPa, Liquid, Isothermal microcalorimeter

CCOC(=O)CC(=O)OCC [diethyl 1,3-propanedioate] + CCCCCO
excess molar enthalpy [kcal/mol]
Conditions | 288.15 K | 298.15 K | 313.15 K | 328.15 K | 338.15 K | 348.15 K
x1 = 0.0494 | – | 0.146 | – | – | – | –
x1 = 0.0583 | 0.153 | – | 0.179 | 0.171 | 0.185 | 0.195
x1 = 0.1007 | 0.235 | 0.258 | 0.282 | 0.292 | 0.294 | 0.301
x1 = 0.1478 | 0.31 | 0.338 | 0.387 | 0.391 | 0.3934 | 0.3987
x1 = 0.2 | 0.3731 | 0.4132 | 0.4584 | 0.4859 | 0.4897 | 0.49
x1 = 0.2474 | 0.4204 | 0.4646 | 0.5196 | 0.5471 | 0.5504 | 0.5566
x1 = 0.3001 | 0.4622 | 0.5153 | 0.5793 | 0.6047 | 0.6154 | 0.6068
x1 = 0.3474 | 0.4885 | 0.5428 | 0.6142 | 0.6424 | 0.6482 | 0.6441
x1 = 0.4003 | 0.512 | 0.5712 | 0.6389 | 0.6666 | 0.6707 | 0.6764
x1 = 0.4472 | 0.5203 | 0.5844 | 0.6465 | 0.6793 | 0.68 | 0.6816
x1 = 0.4997 | 0.5284 | 0.5896 | 0.6467 | 0.6819 | 0.6826 | 0.6781
x1 = 0.55 | 0.528 | 0.5815 | 0.6405 | 0.669 | 0.6692 | 0.6656
x1 = 0.5975 | 0.516 | 0.5674 | 0.6209 | 0.6456 | 0.6439 | 0.6405
x1 = 0.6466 | 0.4945 | 0.543 | 0.5906 | 0.6121 | 0.5973 | 0.5992
x1 = 0.6973 | 0.4653 | 0.5067 | 0.5447 | 0.5609 | 0.5569 | 0.5497
x1 = 0.7497 | 0.4199 | 0.4572 | 0.4857 | 0.4974 | 0.4919 | 0.4826
x1 = 0.7988 | 0.3709 | 0.3982 | 0.4185 | 0.4235 | 0.4218 | 0.407
x1 = 0.8494 | 0.3 | 0.3198 | 0.332 | 0.334 | 0.331 | 0.315
x1 = 0.9017 | 0.212 | 0.223 | 0.226 | 0.232 | 0.224 | 0.217
x1 = 0.9501 | 0.11 | 0.12 | 0.121 | 0.121 | 0.114 | 0.109

CCOC(=O)CC(=O)OCC [diethyl 1,3-propanedioate] + CCCCO
excess molar enthalpy [kcal/mol]
Conditions | 288.15 K | 298.15 K | 313.15 K | 328.15 K | 338.15 K | 348.15 K
x1 = 0.0498 | 0.123 | 0.133 | 0.146 | 0.153 | 0.156 | 0.152
x1 = 0.1085 | 0.239 | 0.254 | 0.285 | – | 0.308 | 0.308
x1 = 0.1482 | 0.2978 | 0.3164 | 0.354 | 0.3676 | 0.3853 | 0.3956
x1 = 0.1991 | 0.3619 | 0.3858 | 0.4369 | 0.4627 | 0.472 | 0.4723
x1 = 0.2499 | 0.4099 | 0.4383 | 0.4947 | 0.5249 | 0.533 | 0.5418
x1 = 0.3003 | 0.4496 | 0.4828 | 0.544 | 0.576 | 0.587 | 0.5882
x1 = 0.3501 | 0.4754 | 0.5177 | 0.5789 | 0.6128 | 0.6219 | 0.6252
x1 = 0.3988 | 0.4967 | 0.5378 | 0.6006 | 0.6315 | 0.6429 | 0.6482
x1 = 0.4501 | 0.5096 | 0.5507 | 0.6128 | 0.6424 | 0.6539 | 0.6511
x1 = 0.5 | 0.5134 | 0.5557 | 0.6104 | 0.6415 | 0.6513 | 0.6487
x1 = 0.548 | 0.51 | 0.5511 | 0.6028 | 0.6322 | 0.6379 | 0.6322
x1 = 0.5984 | 0.5005 | 0.5337 | 0.582 | 0.6047 | 0.6121 | 0.6119
x1 = 0.6512 | 0.4742 | 0.5086 | 0.5495 | 0.5705 | 0.575 | 0.5693
x1 = 0.6965 | 0.4498 | 0.4763 | 0.51 | 0.5256 | 0.5313 | 0.5239
x1 = 0.749 | 0.4037 | 0.4264 | 0.4598 | 0.4627 | 0.4625 | 0.457
x1 = 0.7985 | 0.3516 | 0.3683 | 0.3896 | 0.397 | 0.3963 | 0.3922
x1 = 0.8502 | 0.282 | 0.2949 | 0.3109 | 0.3107 | 0.3162 | 0.306
x1 = 0.8981 | 0.203 | 0.213 | 0.226 | 0.216 | 0.232 | 0.224
x1 = 0.948 | 0.109 | 0.114 | 0.123 | 0.111 | 0.127 | 0.122

CCOC(=O)CC(=O)OCC [diethyl 1,3-propanedioate] + CCOC(C)=O
excess molar enthalpy [kcal/mol]
Conditions | 288.19 K | 298.15 K | 313.15 K | 328.15 K | 338.15 K | 348.15 K
x1 = 0.0504 | -0.000239 | -0.000478 | -0.000956 | -0.00143 | -0.00167 | -0.00239
x1 = 0.1008 | -0.000239 | -0.000717 | -0.00143 | -0.00239 | -0.00335 | -0.00406
x1 = 0.148 | -0.000478 | -0.000956 | -0.00191 | -0.00335 | -0.0043 | -0.0055
x1 = 0.2007 | -0.000478 | -0.0012 | -0.00239 | -0.00406 | -0.00526 | -0.00645
x1 = 0.2496 | -0.000478 | -0.00143 | -0.00263 | -0.00454 | -0.00598 | -0.00741
x1 = 0.2974 | -0.000478 | -0.00143 | -0.00287 | -0.00478 | -0.00621 | -0.00789
x1 = 0.3475 | -0.000478 | -0.00143 | -0.00287 | -0.00502 | -0.00669 | -0.00813
x1 = 0.4 | -0.000478 | -0.00143 | -0.00287 | -0.00502 | -0.00669 | -0.00837
x1 = 0.447 | -0.000478 | -0.00143 | -0.00287 | -0.00502 | -0.00669 | -0.00813
x1 = 0.5003 | -0.000478 | -0.0012 | -0.00287 | -0.00478 | -0.00645 | -0.00789
x1 = 0.5474 | -0.000478 | -0.0012 | -0.00263 | -0.00454 | -0.00621 | -0.00765
x1 = 0.601 | -0.000239 | -0.000956 | -0.00239 | -0.0043 | -0.00574 | -0.00717
x1 = 0.6476 | -0.000239 | -0.000956 | -0.00215 | -0.00406 | -0.00526 | -0.00645
x1 = 0.7009 | -0.000239 | -0.000717 | -0.00191 | -0.00359 | -0.00454 | -0.00574
x1 = 0.7514 | 0 | -0.000717 | -0.00167 | -0.00311 | -0.00406 | -0.00502
x1 = 0.7986 | 0 | -0.000478 | -0.00143 | -0.00239 | -0.00335 | -0.00406
x1 = 0.8476 | 0 | -0.000239 | -0.000956 | -0.00191 | -0.00239 | -0.00311
x1 = 0.8985 | 0 | 0 | -0.000717 | -0.00143 | -0.00167 | -0.00215
x1 = 0.9513 | 0.000239 | 0.000239 | -0.000239 | -0.000717 | -0.000717 | -0.000956
